Calls of active or inactive are those of the source. The rule behind the calls is not given here. Where a SMILES comes first, the peptide text is derived from it. Side-chain parts run from the residue outwards.
Legend:
Escherichia coli [1] = assay: Antibacterial activity against Escherichia coli ATCC 25922 assessed as inhibition of bacterial growth incubated for 20 hrs in presence of ZnCl2 by broth microdilution method (reference value: 16 microM); assay type: functional
Escherichia coli [2] = assay: Antibacterial activity against Escherichia coli ATCC 25922 assessed as inhibition of bacterial growth incubated for 20 hrs in presence of MgCl2 by broth microdilution method (reference value: 16 microM); assay type: functional
Escherichia coli [3] = assay: Additive antibacterial activity against Escherichia coli ATCC 25922 assessed as fractional inhibitory concentration index at 0.25 to 4 times MIC incubated for 20 hrs in presence of gentamicin by checkerboard assay; assay type: functional
Escherichia coli [4] = assay: Additive antibacterial activity against Escherichia coli ATCC 25922 assessed as fractional inhibitory concentration index at 0.25 to 4 times MIC incubated for 20 hrs in presence of rifampicin by checkerboard assay; assay type: functional
[5] = Systemic toxicity in male BALB/c mouse assessed as lung inflammatory cell infiltration at 109.31 mg/kg, ip administered as single dose by H and E staining based analysis; assay type: organism-based; conditions: in vivo
Escherichia coli [6] = assay: Antibacterial activity against Escherichia coli ATCC 25922 assessed as inhibition of bacterial growth incubated for 20 hrs in presence of FeCl3 by broth microdilution method (reference value: 16 microM); assay type: functional
[7] = Systemic toxicity in male BALB/c mouse assessed as renal cell necrosis at 109.31 mg/kg, ip administered as single dose by H and E staining based analysis; assay type: organism-based; conditions: in vivo
[8] = Systemic toxicity in male BALB/c mouse assessed as hepatocyte hemorrhage at 105.41 mg/kg, ip administered as single dose by H and E staining based analysis; assay type: organism-based; conditions: hepatocytes
Staphylococcus aureus [9] = assay: Antibacterial activity against Staphylococcus aureus ATCC 25923 assessed as inhibition of bacterial growth incubated for 20 hrs in presence of ZnCl2 by broth microdilution method (reference value: 8 microM); assay type: functional
Escherichia coli [10] = assay: Antibacterial activity against Escherichia coli ATCC 25922 assessed as inhibition of bacterial growth incubated for 20 hrs in presence of FeCl3 by broth microdilution method (reference value: 8 microM); assay type: functional
Staphylococcus aureus [11] = assay: Antibacterial activity against Staphylococcus aureus ATCC 25923 assessed as inhibition of bacterial growth incubated for 20 hrs in presence of MgCl2 by broth microdilution method (reference value: 8 microM); assay type: functional
Escherichia coli [12] = assay: […] activity against Escherichia coli ATCC 25922 infected in male BALB/c pulmonary infection model assessed as reduction in bacterial colonies at 5 to 10 mg/kg, ip administered at 3 and 12 hrs post infection and measured 24 hrs post infection; assay type: functional, organism-based; conditions: dose 5-10 mg/kg, time 12-21 hrs
[13] = Systemic toxicity in male BALB/c mouse assessed as renal cell necrosis at 105.41 mg/kg, ip administered as single dose by H and E staining based analysis; assay type: organism-based; conditions: in vivo
Cell membrane = assay: Induction of cell membrane damage in Escherichia coli assessed as PI uptake at 2 times MIC measured after 2 hrs by PI dye based flow cytometry analysis (reference value: 16.5%); assay type: cell membranes
Escherichia coli [14] = assay: Resistant development in Escherichia coli assessed as increase in MIC at sub-MIC measured after 20 passages; assay type: functional, organism-based
Staphylococcus aureus [15] = assay: Resistant development in Staphylococcus aureus assessed as increase in MIC at sub-MIC measured after 20 passages; assay type: functional, organism-based
Escherichia coli [16] = assay: Antibacterial activity against Escherichia coli ATCC 25922 assessed as inhibition of bacterial growth incubated for 20 hrs in presence of ZnCl2 by broth microdilution method (reference value: 4 microM); assay type: functional, organism-based
Escherichia coli [17] = assay: Antibacterial activity against Escherichia coli ATCC 25922 assessed as inhibition of bacterial growth incubated for 20 hrs in presence of KCl by broth microdilution method (reference value: 4 microM); assay type: functional, organism-based
Staphylococcus aureus [18] = assay: Bactericidal activity against Staphylococcus aureus ATCC 25923 assessed as elimination of bacteria at 2 times MIC measured after >6 hrs by time kill assay; assay type: functional, organism-based
Escherichia coli [19] = assay: […] activity against Escherichia coli ATCC 25922 infected in male BALB/c pulmonary infection model assessed as reduction in liver bleeding at 10 mg/kg, ip administered at 3 and 12 hrs post infection and measured 24 hrs post infection by H and E staining based analysis; assay type: functional, organism-based; conditions: time 12-21 hrs
Escherichia coli [20] = assay: Synergistic antibacterial activity against rifampicin resistant Escherichia coli ATCC 25922 assessed as fractional inhibitory concentration index at 0.25 to 4 times MIC incubated for 20 hrs in presence of rifampicin by checkerboard assay; assay type: functional, organism-based
Escherichia coli [21] = assay: Synergistic antibacterial activity against Escherichia coli ATCC 25922 assessed as fractional inhibitory concentration index at 0.25 to 4 times MIC incubated for 20 hrs in presence of gentamicin by checkerboard assay; assay type: functional, organism-based

## N=C(N)NCCC[C@H](NC(=O)[C@@H](N)CCCNC(=N)N)C(=O)NCCCC[C@H](NC(=O)[C@H](CCCNC(=N)N)NC(=O)[C@@H](N)CCCNC(=N)N)C(=O)N[C@@H](Cc1c[nH]c2ccccc12)C(=O)N[C@@H](Cc1c[nH]c2ccccc12)C(=O)N[C@@H](Cc1c[nH]c2ccccc12)C(=O)N[C@@H](Cc1c[nH]c2ccccc12)C(N)=O (H-RRK([Arg-Arg])WWWW-NH2)
Escherichia coli [1]
  MIC: 8 µM
Escherichia coli [2]
  MIC: 16 µM
Escherichia coli [3]
  fractional inhibitory concentration index (FICI): 0.563
Escherichia coli [4]
  fractional inhibitory concentration index (FICI): 0.563
[5]
  Activity: Non-Toxic
Escherichia coli [6]
  MIC: 16 µM
[7]
  Activity: Non-Toxic

## N=C(N)NCCC[C@H](NC(=O)[C@H](CCCNC(=N)N)NC(=O)[C@H](CCCNC(=N)N)NC(=O)[C@@H](N)CCCNC(=N)N)C(=O)N[C@@H](CCCCN)C(=O)N[C@@H](Cc1c[nH]c2ccccc12)C(=O)N[C@@H](Cc1c[nH]c2ccccc12)C(=O)N[C@@H](Cc1c[nH]c2ccccc12)C(=O)N[C@@H](Cc1c[nH]c2ccccc12)C(N)=O
[8]
  Activity: Non-Toxic
Staphylococcus aureus [9]
  MIC: 8 µM
Escherichia coli [10]
  MIC: 16 µM
Staphylococcus aureus [11]
  MIC: 16 µM
Escherichia coli [12]
  Activity: Active
[13]
  Activity: Non-Toxic

## POLYMYXIN B
Cell membrane
  Activity: 46.8%
Escherichia coli [14]
  Activity: inactive
Staphylococcus aureus [15]
  Activity: inactive
Escherichia coli [16]
  MIC: 8 µM
Escherichia coli [17]
  MIC: 4 µM
Staphylococcus aureus [18]
  Activity: 100%
Escherichia coli [19]
  Activity: inactive
Escherichia coli [20]
  fractional inhibitory concentration index (FICI): 0.313
Escherichia coli [21]
  fractional inhibitory concentration index (FICI): 0.313

— ChEMBL document CHEMBL5500371, “Arginine and tryptophan-rich dendritic antimicrobial peptides that disrupt membranes for bacterial infection in vivo” (Eur J Med Chem, 2024)
